Test results: patent US11078201B2, “Substituted isoindolin-1-ones and 2,3-dihydro-1H-pyrrol[3,4-c]pyridin-1-ones as HPK1 antagonists” (Nimbus Saturn, Inc., priority 2019, dated 2021)

Target: HPK1 (Homo sapiens (Human), UniProt Q92918)
Assay: HPK1 biochemical enzyme assay (microfluidic mobility shift assay)
Details: 1.5 nM HPK1, ATP 1 mM final, 60 min at RT, Caliper EZ Reader; read-out: HPK1 1000UMATP caliper IC50
Protocol: HPK1 biochemical enzyme assay: HPK1 enzyme inhibition was measured using a microfluidic mobility shift assay. […] Test compounds were titrated in ten point curves (top final assay concentration […]), and preincubated with enzyme/substrate mix for 30 min prior to initiation of the reaction by addition of ATP (1 mM final concentration) and substrate (1 μM final concentration; Carna Biosciences) diluted in assay buffer supplemented by MgCl2 (final assay concentration of 5 mM). Following 60 min incubation at RT, the reaction was terminated by addition of 60 µl/well termination buffer (Carna Biosciences) and signal determination using a Caliper EZ Reader (Perkin Elmer, UK).
The compound numbers correspond to the compound numbers in Table 1.

Chain of HPK1 (Q92918 whole entry): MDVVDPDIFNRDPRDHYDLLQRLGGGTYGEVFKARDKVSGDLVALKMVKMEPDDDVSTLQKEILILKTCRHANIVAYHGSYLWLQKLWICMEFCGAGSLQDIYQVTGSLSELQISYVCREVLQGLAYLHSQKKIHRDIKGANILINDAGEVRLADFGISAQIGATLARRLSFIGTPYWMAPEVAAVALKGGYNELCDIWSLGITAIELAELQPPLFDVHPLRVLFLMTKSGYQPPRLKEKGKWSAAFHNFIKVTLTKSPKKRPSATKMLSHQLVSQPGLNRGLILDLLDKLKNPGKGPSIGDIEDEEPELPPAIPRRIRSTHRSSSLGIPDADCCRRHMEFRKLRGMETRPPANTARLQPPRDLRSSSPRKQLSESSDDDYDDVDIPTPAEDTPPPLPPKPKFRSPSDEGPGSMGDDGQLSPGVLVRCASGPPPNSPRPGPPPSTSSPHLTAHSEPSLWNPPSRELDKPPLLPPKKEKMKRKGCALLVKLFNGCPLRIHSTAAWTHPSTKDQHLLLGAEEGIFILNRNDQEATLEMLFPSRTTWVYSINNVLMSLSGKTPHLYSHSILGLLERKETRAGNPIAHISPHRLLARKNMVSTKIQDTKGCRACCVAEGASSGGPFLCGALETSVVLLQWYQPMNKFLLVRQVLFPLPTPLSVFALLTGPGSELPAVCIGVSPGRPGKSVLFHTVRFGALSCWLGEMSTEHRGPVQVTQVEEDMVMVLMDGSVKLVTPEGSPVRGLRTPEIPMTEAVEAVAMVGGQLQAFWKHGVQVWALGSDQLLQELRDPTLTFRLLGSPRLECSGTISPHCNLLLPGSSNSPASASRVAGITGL

Substance	IC50
4-(8-fluoro-7- methyl-imidazo[1,2- a]pyridin-3- yl)-7-[[5- (morpholino- methyl)-2- pyridyl]amino] isoindolin-1-one [I-468]	< 100 nM
4-[7-(hydroxymeth- yl)imidazo[1,2- a]pyridin-3- yl]-7-[(5- morpholino-2- pyridyl)amino] isoindolin-1-one [I-196]	< 100 nM
